ChEMBL document CHEMBL5352470, “RS6077 induces mitotic arrest and selectively activates cell death in human cancer cell lines and in a lymphoma tumor in vivo” (Eur J Med Chem, 2023)

Columns and labels:
[1] = Selectivity ratio of IC50 for human TERT-RPE1 cells to IC50 for human AHH-1 cells; format: functional
[2] = system: TERT-RPE1; assay: Induction of cell cycle arrest in human TERT-RPE1 cells assessed as accumulation of cells at S phase at 1000 nM incubated for 72 hrs by annexin V-FITC and PI staining based flow cytometry analysis; format: functional
[3] = system: TERT-RPE1; assay: Induction of cell cycle arrest in human TERT-RPE1 cells assessed as accumulation of cells at G2/M phase at 100 nM incubated for 72 hrs by annexin V-FITC and PI staining based flow cytometry analysis; format: functional
[4] = system: AHH-1; assay: Induction of cell cycle arrest in human AHH-1 cells assessed as accumulation of cells at G1 phase at 2500 nM incubated for 72 hrs by annexin V-FITC and PI staining based flow cytometry analysis; format: functional
[5] = system: AHH-1; assay: Induction of apoptosis in human AHH-1 cells at 100 nM measured after 72 hrs by annexin V-FITC and PI staining based flow cytometry analysis; format: functional
[6] = system: Maver1; assay: Antiproliferative activity against human MAVER-1 cells assessed as inhibition of cell growth measured for 72 hrs by MTT assay; format: functional, cell-based; details: Maver1, 72 h
[7] = system: TMD8; assay: Antitumor activity against human TMD8 cells xenografted in NOD/SCID mouse assessed as reduction in tumor volume at 100 mg/kg, po administered for 5 days and measured on day 9; format: functional; details: time 9 day
[8] = Toxicity in NOD/SCID mouse assessed as tolerability at 100 mg/kg, po administered for 5 days; format: organism-based; details: in vivo, 120 h, time 5 day
[9] = Toxicity in human T cells derived from human PBMC assessed as early apoptotic cells at 0.1 uM measured for 48 hrs by annexin V-FITC and PI staining based flow cytometry analysis (reference value: 6.75 to 8.22 %); details: t-cell
[10] = Toxicity in human T cells derived from human PBMC assessed as early apoptotic cells at 1 uM measured for 48 hrs by annexin V-FITC and PI staining based flow cytometry analysis (reference value: 6.75 to 8.22 %); details: t-cell
[11] = Toxicity in human T cells derived from human PBMC assessed as viable cells at 2.5 uM measured for 48 hrs by annexin V-FITC and PI staining based flow cytometry analysis (reference value: 77.5 to 79.5 %); format: cell-based, T-cell; details: read-out: Activity
[12] = Toxicity in human T cells derived from human PBMC assessed as late apoptotic cells at 0.1 uM measured for 72 hrs by annexin V-FITC and PI staining based flow cytometry analysis (reference value: 11.5 to 17.6%); details: t-cell
[13] = Toxicity in human T cells derived from human PBMC assessed as necrotic cells at 1 uM measured for 72 hrs by annexin V-FITC and PI staining based flow cytometry analysis (reference value: 0.48 to 0.56 %); details: t-cell
[14] = Toxicity in human T cells derived from human PBMC assessed as late apoptotic cells at 2.5 uM measured for 72 hrs by annexin V-FITC and PI staining based flow cytometry analysis (reference value: 11.5 to 17.6%); details: t-cell

Question: What does the source list for `COc1cc(C(=O)c2ccn(-c3ncnc4[nH]ccc34)c2)cc(OC)c1OC`?
Answer: Ratio IC50 [1]: 6.2; Activity [2]: 3.4%; Activity [3]: 83%; Activity [4]: 9.8%; Activity [5]: 60%; IC50 [6]: 63.1 nM; Activity [7]: 402 mm3; Activity [8]: Non-Toxic; Activity [9]: 5.88%; Activity [10]: 6.49%; viability at 48 h, 2.5 µM [11]: 72.7%; Activity [12]: 11.8%; Activity [13]: 0.41%; Activity [14]: 12.7%
